Laboratory results taken from ChEMBL document CHEMBL4665811, “Sila-Ibuprofen” (J Med Chem, 2020).
Converted amounts (≈) assume the structure as drawn.

Experiments:
C6 [1] = test: Toxicity in rat C6 cells assessed as effect on cell morphology at 1000 uM incubated for 3 days; format: cell-based; settings: c6, 72 h, time 3 day
[2] = target: T1, Prostaglandin G/H synthase 2 (Homo sapiens, UniProt P35354); test: Inhibition of human recombinant COX2 expressed in Sf9 cells using arachidonic acid and ADHP incubated for 5 mins by fluorimetry
T1 sequence (P35354 whole entry): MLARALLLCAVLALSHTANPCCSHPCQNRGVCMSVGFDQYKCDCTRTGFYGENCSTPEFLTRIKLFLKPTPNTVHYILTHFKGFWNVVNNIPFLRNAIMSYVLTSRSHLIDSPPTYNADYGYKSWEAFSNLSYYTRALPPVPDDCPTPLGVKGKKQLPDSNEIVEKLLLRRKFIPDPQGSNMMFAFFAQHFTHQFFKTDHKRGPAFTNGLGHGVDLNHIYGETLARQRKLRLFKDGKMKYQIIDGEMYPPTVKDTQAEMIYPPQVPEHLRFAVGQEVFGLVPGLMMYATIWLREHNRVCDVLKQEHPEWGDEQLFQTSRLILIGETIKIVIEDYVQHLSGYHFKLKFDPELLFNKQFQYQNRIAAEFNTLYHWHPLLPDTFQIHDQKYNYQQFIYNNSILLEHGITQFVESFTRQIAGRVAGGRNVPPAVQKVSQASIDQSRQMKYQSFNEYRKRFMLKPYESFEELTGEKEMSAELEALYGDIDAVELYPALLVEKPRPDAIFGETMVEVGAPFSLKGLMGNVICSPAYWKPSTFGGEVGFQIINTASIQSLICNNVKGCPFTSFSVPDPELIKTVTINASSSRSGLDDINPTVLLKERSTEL

[3] = Solubility in water by HPLC/UV analysis; format: physicochemical
C6 [4] = test: Toxicity in rat C6 cells assessed as reduction in cell proliferation at 1000 uM incubated up to 3 days by LDH release assay; format: cell-based; settings: c6, 72 h, time <=3 day
C6 [5] = test: Toxicity in rat C6 cells assessed as effect on cellular lactate production to 300 uM incubated for 72 hrs; format: cell-based; settings: c6, 72 h
C6 [6] = test: Toxicity in rat C6 cells assessed as reduction in protein content at 1000 uM incubated up to 3 days; format: cell-based; settings: c6, 72 h, time <= day
C6 [7] = test: Toxicity in rat C6 cells assessed as effect on cellular viability up to 300 uM incubated for 72 hrs by WST1 assay; format: cell-based; settings: c6, 72 h
C6 [8] = test: Toxicity in rat C6 cells assessed as effect on extracellular lactate dehydrogenase activity at 1000 uM incubated for 3 days by LDH release assay; format: cell-based; settings: c6, 72 h, time 3 day
[9] = target: Prostaglandin G/H synthase 1 (Homo sapiens, UniProt P23219); test: Inhibition of human recombinant COX1 expressed in Sf9 cells using arachidonic acid and ADHP incubated for 3 mins by fluorimetry
Chain of Prostaglandin G/H synthase 1 (P23219 whole entry): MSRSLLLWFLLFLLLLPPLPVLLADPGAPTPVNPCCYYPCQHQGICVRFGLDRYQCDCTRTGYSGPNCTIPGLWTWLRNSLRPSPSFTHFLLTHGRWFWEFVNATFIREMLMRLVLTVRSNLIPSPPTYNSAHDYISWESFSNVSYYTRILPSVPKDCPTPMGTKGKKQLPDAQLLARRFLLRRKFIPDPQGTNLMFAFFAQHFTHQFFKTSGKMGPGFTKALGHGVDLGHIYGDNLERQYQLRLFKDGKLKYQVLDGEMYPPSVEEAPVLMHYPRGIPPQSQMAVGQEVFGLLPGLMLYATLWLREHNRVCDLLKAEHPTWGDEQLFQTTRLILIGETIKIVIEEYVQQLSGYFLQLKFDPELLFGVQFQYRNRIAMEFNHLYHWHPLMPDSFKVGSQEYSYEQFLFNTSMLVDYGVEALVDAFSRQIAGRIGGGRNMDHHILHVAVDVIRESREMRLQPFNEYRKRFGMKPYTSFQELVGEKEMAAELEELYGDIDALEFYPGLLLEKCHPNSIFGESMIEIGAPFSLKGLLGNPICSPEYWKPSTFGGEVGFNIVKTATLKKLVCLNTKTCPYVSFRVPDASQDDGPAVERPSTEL

C6 [10] = test: Toxicity in rat C6 cells assessed as effect on cellular protein per well up to 300 uM incubated for 72 hrs; format: cell-based; settings: c6, 72 h
C6 [11] = test: Toxicity in rat C6 cells assessed as effect on cell proliferation at 300 uM incubated up to 3 days by LDH release assay; format: cell-based; settings: c6, 72 h, time <=3 day
C6 [12] = test: Toxicity in rat C6 cells assessed as effect on cellular viability at 1000 uM incubated up to 3 days by WST1 assay; format: cell-based; settings: c6, 72 h, time <=3 day
C6 [13] = test: Toxicity in rat C6 cells assessed as effect on cell viability up to 300 uM incubated for 72 hrs by LDH release assay; format: cell-based; settings: c6, 72 h

| IC50 [2] [µM] | solubility [3] [µg/mL] | IC50 [9] [µM] | SMILES | Activity (C6 [1]) | Activity (C6 [4]) | Activity (C6 [5]) | Activity (C6 [6]) | Activity (C6 [7]) | Activity (C6 [8]) | Activity (C6 [10]) | Activity (C6 [11]) | Activity (C6 [12]) | Activity (C6 [13]) |
| --- | --- | --- | --- | --- | --- | --- | --- | --- | --- | --- | --- | --- | --- |
| 8.3 | 83 (≈ 373 µM) | 26 | CC(C(=O)O)c1ccc(C[SiH](C)C)cc1 (stereo unspecified) | Non-Toxic | Toxic | Non-Toxic | Toxic | Non-Toxic | Non-Toxic | Non-Toxic | Non-Toxic | Toxic | Non-Toxic |
| – | – | – | CC(C)Cc1ccc(C(C)C(=O)O)cc1 (stereo unspecified) [IBUPROFEN] | Non-Toxic | Toxic | Non-Toxic | – | Non-Toxic | Non-Toxic | Non-Toxic | Non-Toxic | – | Non-Toxic |
